Values quoted from earlier work as cited in US7815920B2, “Method of preparing an antigen-containing formulation” (Allergy Therapeutics (UK) Ltd, priority 1998, dated 2010).

Conditions: not given

Compound | solubility in water (in words)
N[C@@H](CS)C(=O)O [cysteine] | quite soluble in water
NCCCC[C@H](N)C(=O)O [lysine] | quite soluble in water

Same assay, conditions: at 25° C.

Compound | Water Solubility
C[C@H](N)C(=O)O [alanine] | 16.7 g/100 ml H2O
NC(=O)C[C@H](N)C(=O)O [asparagine] | 3.5 g/100 ml H2O
N[C@@H](CS)C(=O)O [cysteine] | very
NC(=O)CC[C@H](N)C(=O)O [glutamine] | 3.7 g/100 ml H2O
N[C@@H](Cc1c[nH]cn1)C(=O)O [histidine] | 4.2 g/100 ml H2O
CC[C@H](C)[C@H](N)C(=O)O [isoleucine] | 4.1 g/100 ml H2O
CC(C)C[C@H](N)C(=O)O [leucine] | 2.4 g/100 ml H2O
NCCCC[C@H](N)C(=O)O [lysine] | very
CSCC[C@H](N)C(=O)O [methionine] | 3.4 g/100 ml H2O
N[C@@H](Cc1ccccc1)C(=O)O [phenylalanine] | 3.0 g/100 ml H2O
N[C@@H](Cc1c[nH]c2ccccc12)C(=O)O [tryptophan] | 1.1 g/100 ml H2O
CC(C)[C@H](N)C(=O)O [valine] | 8.9 g/100 ml H2O
